For one assay, the system named is commissural neurons. The assay can be described thus: dorsal spinal cord survival assay (commissural explant cultures). Format: cell-based, rat. As for the experimental part: To examine functional roles of DR6 in axonal degeneration and programmed cell death of commissural neurons, an RNAi-based dorsal spinal cord survival assay (Kennedy et al., Cell, 78:425-435 (1994); Wang et al., supra, 1999) was conducted (see FIG. 3). E13 rat or E11.5 mouse embryos were placed in L15 medium (Gibco) and siRNAs (IDT) together with green fluorescent protein (“GFP”)-encoding plasmids were injected into the neural tubes. The siRNAs and plasmids were then delivered to dorsal progenitor cells by electroporation. Dorsal spinal cord explants were dissected out, embedded into a 3D-collagen gel matrix, and cultured in Opti-MEM/F12 medium (Invitrogen) with recombinant netrin-1 ([…]) and 5% horse serum (Sigma) at 37° C. in a 5% CO2 environment. Within 16 hours in response to chemo-attractant netrin-1, commissural axons grow out of the explant into the collagen matrix gel (Kennedy et al., supra, 1994). Commissural axons are visualized by GFP fluorescence by observation using an inverted microscope.
Materials and methods used to generate the data shown in this figure are as follows. To investigate physiological roles of DR6 receptor in axonal degeneration and programmed cell death of commissural neurons, a dorsal spinal cord survival assay according to protocols known in the art (Kennedy et al., Cell 78:425-435 (1994); Wang et al., Nature 401:765-769 (1999)) was performed (with data shown in FIG. 4B). E13 rat embryos were placed in L15 medium (Gibco) and injected into their neural tubes with the following siRNA constructs (FIG. 4B):
Control non-targeting, or targeting DR6 siRNA #2, or targeting DR6 siRNA #3 (IDT) together with either wild-type or mis-match DR6 cDNA and GFP-encoding plasmids. DR6 cDNA and GFP cDNA were subcloned into pCAGGS vector backbone (commercially available from BCCM/LMBP). siRNAs and plasmids were then delivered to dorsal progenitor cells by electroporation. Dorsal spinal cord explants were then dissected out, embedded into a 3D collagen gel matrix and cultured in Opti-MEM/F12 medium (Invitrogen) with recombinant netrin-1 and 5% horse serum (Sigma) at 37° C. in a 5% CO2 environment. Within 16 hours in response to chemo-attractant netrin-1 commissural axons grow out of the explant into the collagen matrix gel (Kennedy et al., Cell 78:425-435 (1994). Commissural axons are visualized by GFP fluorescence by observation using inverted microscope. After 48 hours in culture in the absence of trophic factor support derived from the floorplate, commissural neurons undergo programmed cell death and their axons degenerate (Wang et al., Nature, 401:765-769 (1999)) (FIG. 4B). However, the axonal degeneration program can be blocked by introduction of a targeting DR6-specific siRNA #3 (FIG. 4B). The specific, on-target effect of DR6-specific siRNA #3 is further confirmed in a rescue experiment in which axonal degeneration phenotype is restored by co-expression of the siRNA#3-resistant mis-match DR6 cDNA construct together with DR6 siRNA #3 (FIG. 4B). Presented experimental evidence establishes that DR6 receptor function is required for axonal degeneration and death of commissural neurons upon withdrawal from their intermediate target, the floorplate of the spinal cord.
A dorsal spinal cord survival assay (as described in Example 2 above) was conducted using anti-DR6 antibodies. Microscopic observation (using green fluorescence channel for GFP) was employed to visualize commissural axons. […]

For the next assay, the system named is sensory axons. Kind of assay: NGF deprivation assay in Campenot chambers (local sensory axon degeneration). The class given is cell-based, mouse. Particulars: for sensory axonal degeneration induced by NGF withdrawal: 30 μg/ml hDR6-ECD-Fc in axonal compartment, 0 to 24 hours. As for the experimental part:
Materials and methods used to generate the data shown in this figure are as follows. To examine whether ligand is required for DR6 function in sensory axonal degeneration, a compartmented culture analysis of sensory axon growth and degeneration was carried out as follows. A Campenot nerve cell chamber system was used to isolate neuronal processes (axons) from the cell bodies in different compartments (separate fluid environments), analogous to neuronal cell bodies in one location of the nervous system projecting their axons to a distal target in another location. The assay was carried out as originally described by Campenot (Campenot et al., J. Neurosci. 11(4): 1126-39 (1991)) with the following modifications. Briefly, 35-mm tissue culture dishes were coated with PDL/Laminin and scratched with a pin rake (Tyler Research) to generate tracks, as illustrated for example in FIGS. 1 and 4 of Campenot et al., supra.
A drop of culture medium (Neurobasal medium with B27 supplement, 25 ng/ml of NGF, and 4 g/L of methylcellulose) was placed on the scratched substratum. A Teflon divider (Tyler Research) was seated on silicone grease and a dab of silicone grease was placed at the mouth of the center slot. Dissociated sensory neurons derived from E12.5 mouse DRGs were suspended in methylcellulose-thickened medium and loaded into a disposable sterile syringe fitted with a 22-gauge needle. This cell suspension was injected into the center slots of each compartmented dish under the dissecting microscope. The neurons were allowed to settle overnight. […]
To trigger local axonal degeneration, NGF-containing medium from axonal compartments was substituted with neurobasal medium with an NGF blocking antibody (anti-NGF, Genentech, Inc., 20 ug/ml). Zero hours, 6 hours, or 24 to 48 hours following NGF deprivation, sensory neurons were fixed in 4% PFA for 30 minutes at room temperature and processed for immunofluorescence staining with axonal marker TUJ-1 (Covance, 1:500 dilution) to visualize degenerating axons by fluorescence microscopy (FIG. 11B) (as above described in Example 7). […]
To examine whether ligand is required for DR6 function in axonal degeneration program triggered by NGF withdrawal, 30 μg/ml of hDR6-ECD-Fc immunoadhesin protein (described in Example 3 above) or 30 μg/ml of a control Fc (Genentech, Inc.) was included together with anti-NGF treatment in axonal compartments of Campenot Chambers. Zero to 24 hours after NGF deprivation, axons in Campenot Chambers were fixed with 4% PFA/PBS and visualized by immuno-fluorescence staining with TUJ-1 (1:500, Covance)/secondary antibody conjugated to a fluorescence group Alexa 488 (Molecular Probes, BD) (FIG. 11B). […]

Assay [1] has as its target p75 (as used in the ELISA and in general statements). Kind of assay: ELISA, format not described (data not shown). (In general: ELISA stands for enzyme-linked immunosorbent assay.)
For assay [2], the system named is DR6-AP binding sites on BAX null sensory axons. The assay can be described thus: in situ DR6-AP sensory axon binding assay. Particulars: BACE inhibitor 1 uM; BAX null E12.5 sensory axons. Format: cell-based, mouse. As for the experimental part: For the in situ DR6-AP sensory axon binding assay, either wild-type or Bax null sensory explants were cultured in Neurobasal medium/B27 (Invitrogen) as outlined in the Examples 7-8 above, with 50 ng/mlNGF (Roche). Two days post-plating, DRG explants were either left untreated or deprived from NGF as described above in Examples 7-8. Bax inhibitory peptide was added where indicated on FIG. 12B (10 uM, Bax-V5, Tocris). Twelve hours post-NGF deprivation, DRG explants were washed twice with the binding buffer (HBSS, Gibco Cat. No. 14175-095, with 0.2% BSA, 0.1% NaN3, 5 mM CaCl2, 1 mM MgCl2, 20 mM HEPES, pH=7.0). AP binding assay was then carried out by making a 1:1 mixture of DR6-AP conditioned medium and the binding buffer (or control AP conditioned medium and the binding buffer), which was applied directly to DRG explants in 8-well culture slides (Becton, Dickinson and Company) and incubated for 90 minutes at room temperature.
Following the incubation, unbound DR6-AP proteins were washed away by rinsing DRG explants five times with the binding buffer. DRG explants were then fixed with 3.7% formaldehyde diluted in PBS, for 12 minutes at room temperature. The remaining formaldehyde was removed by rinsing DRG explants 3 times with HBS buffer (20 mM HEPES pH=7.0, 150 mM NaCl). Endogenous AP activity was blocked by heat inactivation at 65° C. in HBS buffer for 30 minutes. […]

Where a SMILES comes first, the peptide text is derived from it. The star is where a group is joined. Cbz = O=C(OCc1ccccc1)*; CH2F = FC*

“5′-CAAUAGGUCAGGAAGAUGGCU-3′ [DR6-specific siRNA #3]”: the “axonal degeneration of commissural neurons” value in the assay with commissural neurons (siRNA electroporated, 48 hours in culture without floorplate trophic support) was “blocked”.

As to `CC[C@H](C)[C@H](NC(=O)OCc1ccccc1)C(=O)N[C@@H](CCC(=O)OC)C(=O)N[C@H](C(=O)N[C@@H](CC(=O)OC)C(=O)CF)[C@@H](C)O` [Z-IETD-FMK] (Cbz-IE(OMe)TD(OMe)-CH2F), the “axonal degeneration after NGF deprivation” value with sensory axons (24 hours anti-NGF, SP 600125 1 uM, Z-IETD-FMK 10 uM, Z-DEVD-FMK 10 uM) is on record as “delayed”.

As for (L)-HIV-TAT48-57-PP-JBD20 [L-JNK-I], in the assay with commissural neurons (JNK inhibitor at 10 μM, 48 hr, no trophic factor, listed as L-JNKI-1), the “stereotyped degeneration of commissural neurons in DSC explant cultures” value was “largely blocks stereotyped degeneration”. Further, the “axonal degeneration of commissural neurons” value with commissural neurons (peptide JNK inhibitor at 1 μM) was “partially blocked axonal degeneration”.

As a reminder, the EC50 is the concentration needed to bring the measured effect to its halfway point. “APP (as used in the p75 ELISA) (from UniProt P05067 18-286) (ligand)” registered an EC50 in assay [1] of 300 nM.

Consider “Abeta: recombinant human Beta amyloid amino acids 1-42, Chemicon”, for which the “induction of commissural axonal degeneration” value in the assay with commissural neurons (Abeta 1-42 3 μM added 24 hours after plating with BACE inhibitor 1 uM) is “axonal degeneration triggered”.

OM99-2: the “axonal degeneration after NGF deprivation” value in the assay with sensory axons (BACE inhibitor 1 uM) is recorded as “blocked”. The “disappearance of DR6-AP binding sites from sensory axons following NGF withdrawal” value in assay [2] was “block the disappearance of DR6-AP binding sites”.

In the case of “hDR6-ECD-Fc: human DR6 extracellular domain sequence fused with Fc, SEQ ID NO: 4”, the commissural axon degeneration entry with commissural neurons (30 μg/ml and 10 μg/ml hDR6-ECD-Fc, 48 hours) is “delayed”. Also, the results for the “sensory axonal degeneration induced by NGF withdrawal” value in the assay on sensory axons and in the assay with sensory axons (listed as DR6-Fc) were “delayed the onset of axonal degeneration” and “delayed”, respectively.

These data come from patent publication US20120076785A1, “METHOD FOR INHIBITING NEURODEGENERATION” (GENENTECH, INC., priority 2009, published 2012).
